TGI and GI50 data for 13 compounds are collected here from PubChem BioAssay (NCI).

“And” between values parts separate entries of the source, which are not always exact repeats. Equal entries are not always repeated.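 Cells were grown in 96-well plates and exposed to each compound for 48 hours at five concentrations; endpoints were interpolated linearly between bracketing concentrations, or set to the highest concentration if not reached. GI50 marks 50% less growth. TGI marks complete inhibition of growth.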

Common to all, as to assay: DTP human tumour cell line panel, 48 h
Assay [1] has as its system 786-0 renal.
For assay [2], the system named is EKVX NSCLC.
Assay [3] has as its system LOX IMVI melanoma.
Assay [4] has as its system OVCAR-5 ovarian.
The subject of assay [5] is RPMI-8226 leukemia.
Assay [6] deals with SF-295 CNS.
The subject of assay [7] is SK-MEL-2 melanoma.
Assay [8] has as its system SK-MEL-28 melanoma.
Assay [9] relates to SK-MEL-5 melanoma.
The test system of assay [10] is SK-OV-3 ovarian.

In the case of `COC(=O)c1nc(NN)[nH]c(=O)c1CCCCCc1c(C(=O)OC)[nH]c(NN)cc1=O`, the TGI in assay [1], in assay [2], in assay [3], in assay [4], in assay [5] and in [6] was > 100 µM throughout. The TGI in assay [7], in [8], in assay [9] and in [10] was > 100 µM in each case.

Consider `O=C(Nc1ccc(OC(F)(F)F)cc1)c1sccc1NCc1ccnc2ccccc12`, for which the GI50 in assay [1] was 7.53 µM; in [2], 2.35 µM; in [3], 2.85 µM; in [4] it was 7.73 µM; in assay [5], 3.32 µM; in [6] it was 2.63 µM. Besides, the GI50 is 1.28 µM in [7], 5.64 µM in assay [8], 2.37 µM in assay [9] and 2.42 µM in assay [10]. Also, the total growth inhibition concentration (TGI) is > 88.1 µM in assay [1]; > 100 µM in [2]; 13.5 µM in assay [3]; > 100 µM in [4]; 29.8 µM in assay [5]; > 45.7 µM in assay [6]. Besides, the concentration for total growth inhibition (TGI) is 4.3 µM in assay [7], > 100 µM in [8], 7.21 µM in assay [9] and > 100 µM in assay [10].

On to `CCc1nc(N)nc(N)c1-c1ccc([N+](=O)[O-])c(NCc2ccccc2)c1`, for which the TGI is 29.8 µM in assay [1]; 41.6 µM in assay [2]; 45.4 µM in assay [3]; > 100 µM in [4]; 32.2 µM in [5]; 28.4 µM in [6]. For the same compound, the TGI in assay [7] is 50.2 µM; in [8], 35.1 µM; in [9], 22.9 µM; in assay [10], > 55.1 µM.

Consider `N#CC(C#N)SCc1ccccc1`, for which the TGI in assay [1] was > 100 µM; in assay [2], > 100 µM; in [3], > 19.8 µM; in assay [4] it was > 40.3 µM; in assay [5], > 38.6 µM; in assay [6] it was > 100 µM. The total growth inhibition concentration (TGI) in assay [7] is 93 µM; in assay [8], > 100 µM; in assay [9], > 85.6 µM; in assay [10], > 49 µM.

As for `CC[C@H](C)[C@H](NC(=O)c1cnccn1)C(=O)N(C)[C@H](C[C@@H](OC(C)=O)c1nc(C(=O)N[C@@H](Cc2ccccc2)C[C@H](C)C(=O)OC)cs1)C(C)C`, the GI50 in [1] was 1.71 µM; in assay [2] it was 1.75 µM; in assay [3], 1.63 µM; in assay [4] it was 3.71 µM; in [5] it was 1.07 µM; in [6], 1.03 µM. In addition, the GI50 is 0.827 µM in [7], 2.37 µM in assay [8], 0.809 µM in assay [9] and 1.95 µM in assay [10]. Also, the TGI in assay [1] was > 21.9 µM; in [2] it was > 33.3 µM; in [3], > 33.3 µM; in assay [4], > 33.3 µM; in assay [5], > 33.3 µM; in assay [6] it was > 33.3 µM. Moreover, the TGI was > 33.3 µM in assay [7], > 33.3 µM in assay [8], 2.87 µM in [9] and > 33.3 µM in assay [10].

`COC1/C=C/OC2(C)Oc3c(C)c(O)c4c(c3C2=O)C(=O)C=C(NC(=O)/C(C)=C\C=C\C(C)C(OC=O)C(C)C(O)C(C)C(OC(C)=O)C1C)C4=O` (stereo not given): the concentration for total growth inhibition (TGI) in [1] came to 20.8 µM; in assay [2] it was 25.8 µM; in assay [3], 14.1 µM; in assay [4], 36.4 µM; in [5] it was 24.2 µM; in assay [6], 51 µM. In addition, the TGI came out at 36.6 µM in [7], 15 µM in assay [8], 31.6 µM in [9] and 56.7 µM in assay [10].

Take `NS(=O)(=O)c1ccc(N2Cc3cc(Cl)ccc3OC3=C2C(=O)N(CC2CCCCC2)C3=O)cc1`: the concentration for 50% growth inhibition (GI50) in assay [1] is 0.207 µM; in assay [2] it was 1.47 µM; in assay [3], 1.01 µM; in assay [4], 1.76 µM; in assay [5], 0.227 µM; in [6] it was 1.81 µM. Moreover, the GI50 is 1.86 µM in assay [7], 1.16 µM in assay [8], 1.77 µM in assay [9] and 2.07 µM in assay [10]. The TGI in [1] was 0.482 µM; in [2], 2.91 µM; in assay [3], 2.32 µM; in assay [4], 3.54 µM; in [5] it was 0.575 µM; in assay [6], 4.03 µM. Also, the TGI in assay [7] stood at 3.65 µM; in [8], 2.57 µM; in assay [9] it was 3.25 µM; in assay [10], 4.26 µM.

For the compound `Cc1c(C)c2cc3c(=O)ccoc3c(C)c2oc1=O`, the TGI in assay [1], in [2], in [3], in [4], in [5] and in assay [6] was > 100 µM each time. For the same compound, the TGI in assay [7], in [8], in [9] and in assay [10] was > 100 µM throughout.

For `COc1cc2cc(Oc3ccc(NC(=O)c4cccc(C(F)(F)F)c4)cc3)c(C)nc2cc1OC`, the GI50 in [1] is 5.31 µM; in assay [2], 4.39 µM; in assay [3], 4.36 µM; in assay [4] it was > 100 µM; in [5], 3.67 µM; in [6], 2.73 µM. Moreover, the GI50 in [7] is 5.11 µM; in assay [8], 6.61 µM; in assay [9] it was 2.45 µM; in [10] it was > 100 µM. The TGI in assay [1], in [2], in assay [3], in assay [4], in assay [5] and in assay [6] was > 100 µM in each case. In addition, the total growth inhibition concentration (TGI) is > 100 µM in [7], > 100 µM in [8], 8.84 µM in assay [9] and > 100 µM in [10].

As for `CN1CCCN(CCNc2nccc(-c3c(-c4cccc(O)c4)nc4sccn34)n2)S1(=O)=O`, the GI50 in assay [1] is 5.55 µM and 7.14 µM; in [2], 31.1 µM and 30.3 µM; in assay [3], 1.55 µM and 1.99 µM; in assay [4], 27 µM and 32.3 µM; in [5], 16.7 µM and 15.2 µM; in assay [6] it was 12.9 µM and 13.3 µM. For the same compound, the GI50 is 2.37 µM and 2.15 µM in [7]; 0.168 µM and 0.226 µM in assay [8]; 1.17 µM and 1.23 µM in [9]; 3.44 µM and 3.21 µM in [10]. Further, the TGI was 72.4 µM and > 100 µM in [1]; 75 µM and > 100 µM in assay [2]; 16.7 µM and 21.5 µM in assay [3]; 75 µM and > 100 µM in assay [4]; 37.2 µM and 41.3 µM in [5]; 32.1 µM and 38.8 µM in assay [6]. The TGI in assay [7] was 7.29 µM and 6.74 µM; in assay [8], 60.8 µM and 40.3 µM; in [9], 11.2 µM and 13.8 µM; in [10], 21.3 µM and 17 µM.

As for `CCOC(=O)c1c(NC(=O)c2ccc(C(C)C)cc2)sc2c(CN(C)C)c(O)ccc12`, the GI50 in assay [1] was 1.79 µM; in [2] it was 2.78 µM; in [3], 1.76 µM; in [4] it was 2.92 µM; in assay [5], 1.84 µM; in [6] it was 1.86 µM. For the same compound, the GI50 in assay [7] was 2.14 µM; in assay [8] it was 1.73 µM; in [9] it was 1.73 µM; in assay [10], 3 µM. For the same compound, the TGI in assay [1] stood at 3.36 µM; in assay [2], 9.09 µM; in assay [3], 3.23 µM; in assay [4], 9.49 µM; in assay [5], 4.6 µM; in assay [6] it was 3.45 µM. For the same compound, the TGI in [7] came out at 4.59 µM; in assay [8], 3.24 µM; in [9] it was 3.11 µM; in assay [10], 9.22 µM.

Regarding `C[n+]1cc2c3c(ccc2c2ccc4cc5c(cc4c21)OCO5)OCO3`, the GI50 was 1.02 µM in [1]; 1.33 µM in assay [2]; 0.171 µM in [3]; 1.16 µM in assay [4]; 0.365 µM in assay [5]; 1.22 µM in assay [6]. In addition, the GI50 in assay [7] is 1.33 µM; in assay [8], 1.22 µM; in assay [9], 1.16 µM; in assay [10] it was 1.21 µM. Moreover, the total growth inhibition concentration (TGI) came to 2.26 µM in assay [1]; 2.65 µM in [2]; 0.411 µM in assay [3]; 2.42 µM in assay [4]; 1.88 µM in assay [5]; 2.53 µM in assay [6]. For the same compound, the TGI in assay [7] worked out at 2.79 µM; in assay [8] it was 2.48 µM; in [9], 2.39 µM; in assay [10] it was 2.45 µM.

Consider `CC(CO)[C@H]1OC(=O)C=C2[C@@]13O[C@@H]3[C@H]1OC(=O)[C@@]3(C)[C@H]4O[C@H]4C[C@@]2(C)[C@@H]13` (stereo not given in full), for which the total growth inhibition concentration (TGI) is > 28.1 µM in assay [1]; 18.3 µM in [2]; 1.14 µM in [3]; > 87.9 µM in assay [4]; 8.75 µM in assay [5]; > 33.4 µM in [6]. Moreover, the TGI is 11.1 µM in assay [7], > 100 µM in assay [8], > 37.5 µM in assay [9] and > 57 µM in assay [10].

As a reminder, the TGI is the concentration at which net growth stops. A low value points to more potent growth arrest. In general, GI50 refers to the concentration giving 50% growth inhibition.
